Results reported in paper PMC9945734 (BMC Medicine, 2023).
Read-outs that look alike come from different tables or passages of the source.

Test system: PC-3-KQ cells
Experiment: 3D spheroid invasion assay and screening of FDA-approved drugs
Format: cell-based, human
Conditions: compared to vehicle control; for activity at 0.01 µM / activity at 0.1 µM / activity at 1 µM / activity at 10 µM: Homo sapiens, 72 h, read-out: Invasion rates (%) of each drug’s multiple concentrations
Outline: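 Cells were clustered into spheroids by centrifugation and grown 3 days, then embedded in matrigel-medium containing drug on day 4 and cultured another 3 days. Drugs were screened at 10 μM first, then at 0–10 μM, in duplicate wells. Invasion area is total area minus core sphere area from phase-contrast images.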

[1] = 0.01 μM (first column so headed), secondary screening of 87 hit compounds (Table S1)
[2] = 0.01 μM (second column so headed), secondary screening of 87 hit compounds (Table S1)
[3] = 0.1 μM, secondary screening of 87 hit compounds (Table S1)
[4] = 1 μM, secondary screening of 87 hit compounds (Table S1)
[5] = 10 μM, secondary screening of 87 hit compounds (Table S1)
[6] = 0.01 μM (first column so headed), third screening of 25 hit compounds (Table S2)
[7] = 0.01 μM (second column so headed), third screening of 25 hit compounds (Table S2)
[8] = 0.1 μM, third screening of 25 hit compounds (Table S2)
[9] = 1 μM, third screening of 25 hit compounds (Table S2)
[10] = 10 μM, third screening of 25 hit compounds (Table S2)

| SMILES | Invasion rates (%) of each drug’s multiple concentrations (μM) [1] | Invasion rates (%) of each drug’s multiple concentrations (μM) [2] | Invasion rates (%) of each drug’s multiple concentrations (μM) [3] | Invasion rates (%) of each drug’s multiple concentrations (μM) [4] | Invasion rates (%) of each drug’s multiple concentrations (μM) [5] | activity at 0.01 µM [1] | activity at 0.01 µM [2] | activity at 0.1 µM [3] | activity at 1 µM [4] | activity at 10 µM [5] | further results |
| --- | --- | --- | --- | --- | --- | --- | --- | --- | --- | --- | --- |
| CCN(CC)CCOc1ccc2c(c1)C(=O)c1cc(OCCN(CC)CC)ccc1-2.Cl.Cl [Tilorone (dihydrochloride)] | 95.38% | 99.11% | 94.30% | 93.22% | 9.81% |  |  |  |  |  |  |
| CN1C[C@@H]2C[C@H]1CN2c1cc2c(cc1F)c(=O)c(C(=O)O)cn2C1CC1.CS(=O)(=O)O [Danofloxacin (mesylate)] | 94.09% | 90.56% | 86.22% | 14.57% | 3.38% |  |  |  |  |  | Invasion rates (%) of each drug’s multiple concentrations (μM) [6]: 93.23%; Invasion rates (%) of each drug’s multiple concentrations (μM) [7]: 98.11%; Invasion rates (%) of each drug’s multiple concentrations (μM) [8]: 87.17%; Invasion rates (%) of each drug’s multiple concentrations (μM) [9]: 77.40%; Invasion rates (%) of each drug’s multiple concentrations (μM) [10]: 2.06% |
| Cc1ncc([N+](=O)[O-])n1C [Dimetridazole] |  |  |  |  |  | 95.7% | 97.8% | 88.8% | 71% | 3.61% |  |
| CN(C)[C@@H]1C(=O)C(C(N)=O)=C(O)[C@@]2(O)C(=O)C3=C(O)c4c(O)ccc(Cl)c4[C@@](C)(O)[C@H]3C[C@@H]12.Cl [Chlortetracycline (hydrochloride)] | 99.62% | 99.02% | 97.93% | 95.42% | 45.01% |  |  |  |  |  |  |
| CC(=O)[C@]1(O)Cc2c(O)c3c(c(O)c2[C@@H](O[C@H]2C[C@H](N)[C@H](O)[C@H](C)O2)C1)C(=O)c1ccccc1C3=O.Cl [Idarubicin (hydrochloride)] | 80.06% | 88.67% | 83.45% | 7.74% | 3.85% |  |  |  |  |  | Invasion rates (%) of each drug’s multiple concentrations (μM) [6]: 95.32%; Invasion rates (%) of each drug’s multiple concentrations (μM) [7]: 98.46%; Invasion rates (%) of each drug’s multiple concentrations (μM) [8]: 100.06%; Invasion rates (%) of each drug’s multiple concentrations (μM) [9]: 1.25%; Invasion rates (%) of each drug’s multiple concentrations (μM) [10]: 1.34% |
| CCO[C@H]1O[C@@H]2O[C@@]3(C)CC[C@H]4[C@H](C)CC[C@@H]([C@H]1C)[C@@]24OO3 [Artemotil] |  |  |  |  |  | 96.2% | 95.5% | 90.7% | 85.7% | 0.51% |  |
| CC(=O)O[C@H]1C[C@@]2(C)[C@@H](C[C@@H](O)[C@H]3[C@@]4(C)CC[C@@H](O)[C@@H](C)[C@@H]4CC[C@@]32C)/C1=C(\CCC=C(C)C)C(=O)[O-].[Na+] [Fusidic acid (sodium salt)] | 92.69% | 89.70% | 87.85% | 68.14% | 0.70% |  |  |  |  |  |  |
| CNC(=O)c1cc(Oc2ccc(NC(=O)Nc3ccc(Cl)c(C(F)(F)F)c3)cc2)ccn1 [Sorafenib] |  |  |  |  |  | 91.9% | 101% | 91.9% | 76.2% | 43.3% |  |
| CN(C)c1cc(NC(=O)CNC(C)(C)C)c(O)c2c1C[C@H]1C[C@H]3[C@H](N(C)C)C(=O)C(C(N)=O)=C(O)[C@@]3(O)C(=O)C1=C2O.CS(=O)(=O)O.CS(=O)(=O)O.CS(=O)(=O)O.CS(=O)(=O)O [Tigecycline (tetramesylate)] | 59.60% | 77.93% | 4.93% | 4.75% | 8.35% |  |  |  |  |  | Invasion rates (%) of each drug’s multiple concentrations (μM) [6]: 89.06%; Invasion rates (%) of each drug’s multiple concentrations (μM) [7]: 89.80%; Invasion rates (%) of each drug’s multiple concentrations (μM) [8]: 88.10%; Invasion rates (%) of each drug’s multiple concentrations (μM) [9]: 2.36%; Invasion rates (%) of each drug’s multiple concentrations (μM) [10]: 1.12% |
| CN(C)[C@@H]1C(=O)C(C(N)=O)=C(O)[C@@]2(O)C(=O)C3=C(O)c4c(O)ccc(Cl)c4[C@@H](O)[C@H]3C[C@@H]12.Cl [Demeclocycline (hydrochloride)] | 92.92% | 97.24% | 81.08% | 41.75% | 4.21% |  |  |  |  |  | Invasion rates (%) of each drug’s multiple concentrations (μM) [6]: 93.85%; Invasion rates (%) of each drug’s multiple concentrations (μM) [7]: 95.74%; Invasion rates (%) of each drug’s multiple concentrations (μM) [8]: 89.49%; Invasion rates (%) of each drug’s multiple concentrations (μM) [9]: 2.65%; Invasion rates (%) of each drug’s multiple concentrations (μM) [10]: 0.30% |
| COc1ccc2c3c1O[C@H]1C[C@@H](O)C=C[C@@]31CCN(C)C2 [Galanthamine] |  |  |  |  |  | 86.8% |  | 88.4% | 83.3% | 15.1% |  |
| COc1cc2ncnc(Nc3ccc(F)c(Cl)c3)c2cc1NC(=O)/C=C/CN1CCCCC1 [Dacomitinib] |  |  |  |  |  | 78.1% | 77.8% | 73.1% | 44.7% | 5.75% | activity at 0.01 µM [6]: 98.9%; activity at 0.01 µM [7]: 102%; activity at 0.1 µM [8]: 98.6%; activity at 1 µM [9]: 90.7%; activity at 10 µM [10]: 53.9% |
| CO[C@@H]1[C@@H](O[C@@H]2O[C@H](C)[C@@H](O[C@H]3C[C@@](C)(O)[C@@H](OC(=O)CC(C)C)[C@H](C)O3)[C@H](N(C)C)[C@H]2O)[C@@H](CC=O)C[C@@H](C)[C@@H](O)/C=C/C=C/C[C@@H](C)OC(=O)C[C@H]1OC(C)=O [Josamycin] |  |  |  |  |  | 88.6% | 86.9% | 86.7% | 78% | 15.5% |  |
| C=C1c2cccc(O)c2C(O)=C2C(=O)[C@]3(O)C(O)=C(C(N)=O)C(=O)[C@@H](N(C)C)[C@@H]3[C@@H](O)[C@H]12.Cl [Methacycline (hydrochloride)] | 68.21% | 75.44% | 57.31% | 4.98% | 3.07% |  |  |  |  |  | Invasion rates (%) of each drug’s multiple concentrations (μM) [6]: 93.06%; Invasion rates (%) of each drug’s multiple concentrations (μM) [7]: 92.10%; Invasion rates (%) of each drug’s multiple concentrations (μM) [8]: 89.39%; Invasion rates (%) of each drug’s multiple concentrations (μM) [9]: 5.12%; Invasion rates (%) of each drug’s multiple concentrations (μM) [10]: 2.20% |
| COC(=O)c1ccc2c(c1)NC(=O)/C2=C(\Nc1ccc(N(C)C(=O)CN2CCN(C)CC2)cc1)c1ccccc1 [Nintedanib] |  |  |  |  |  | 98.1% | 98.3% | 97.5% | 95.2% | 36.2% |  |
| CS(=O)(=O)O.C[C@H]1NCc2cc(-c3ccc4c(=O)c(C(=O)O)cn(C5CC5)c4c3OC(F)F)ccc21.O [Garenoxacin (Mesylate hydrate)] | 89.65% | 95.96% | 85.98% | 96.56% | 48.76% |  |  |  |  |  |  |
| Cc1ncc([N+](=O)[O-])n1CC(O)CCl (centres unmarked) [Ornidazole (Levo-)] | 90.43% | 93.59% | 87.04% | 71.01% | 4.84% |  |  |  |  |  |  |
| Cc1ncc([N+](=O)[O-])n1CCO [Metronidazole] |  |  |  |  |  | 93.6% | 93.9% | 94.1% | 85.7% | 10.1% |  |
